Measurements taken from PubChem BioAssay (NCI).
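Interpolation was linear, between the two tested concentrations surrounding the appropriate level; five concentrations were tested over 48 hours in 96-well plates. GI50 marks 50% less growth. TGI denotes the concentration required for complete inhibition of growth.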

What was measured:
Assay in all cases: NCI-60 cell line screen, 48 h
HS 578T breast = system: HS 578T breast
HOP-62 NSCLC = system: HOP-62 NSCLC
SN12C renal = system: SN12C renal
OVCAR-3 ovarian = system: OVCAR-3 ovarian
A498 renal = system: A498 renal
T-47D breast = system: T-47D breast
COLO 205 colon = system: COLO 205 colon
TK-10 renal = system: TK-10 renal
786-0 renal = system: 786-0 renal
MDA-MB-435 = system: MDA-MB-435
SR leukemia = system: SR leukemia
MOLT-4 leukemia = system: MOLT-4 leukemia
SW-620 colon = system: SW-620 colon
SNB-75 CNS = system: SNB-75 CNS
BT-549 breast = system: BT-549 breast
SK-MEL-28 melanoma = system: SK-MEL-28 melanoma
U251 CNS = system: U251 CNS
HCT-15 colon = system: HCT-15 colon
HT29 colon = system: HT29 colon
SNB-19 CNS = system: SNB-19 CNS
RXF 393 renal = system: RXF 393 renal
OVCAR-4 ovarian = system: OVCAR-4 ovarian
HCC-2998 colon = system: HCC-2998 colon
OVCAR-5 ovarian = system: OVCAR-5 ovarian
MALME-3M melanoma = system: MALME-3M melanoma
RPMI-8226 leukemia = system: RPMI-8226 leukemia
ACHN renal = system: ACHN renal
IGROV1 ovarian = system: IGROV1 ovarian
UACC-257 melanoma = system: UACC-257 melanoma
NCI-H226 lung = system: NCI-H226 lung
HCT-116 colon = system: HCT-116 colon
EKVX NSCLC = system: EKVX NSCLC
SF-295 CNS = system: SF-295 CNS
SF-539 CNS = system: SF-539 CNS
OVCAR-8 ovarian = system: OVCAR-8 ovarian
MDA-MB-231 breast = system: MDA-MB-231 breast
UO-31 renal = system: UO-31 renal
NCI/ADR-RES ovarian = system: NCI/ADR-RES ovarian
HOP-92 NSCLC = system: HOP-92 NSCLC
MCF7 breast = system: MCF7 breast
UACC-62 melanoma = system: UACC-62 melanoma
HL-60(TB) leukemia = system: HL-60(TB) leukemia
SF-268 CNS = system: SF-268 CNS
SK-OV-3 ovarian = system: SK-OV-3 ovarian
CAKI-1 renal = system: CAKI-1 renal
KM12 colon = system: KM12 colon
PC-3 prostate = system: PC-3 prostate
LOX IMVI melanoma = system: LOX IMVI melanoma
SK-MEL-5 melanoma = system: SK-MEL-5 melanoma
SK-MEL-2 melanoma = system: SK-MEL-2 melanoma
M14 melanoma = system: M14 melanoma
K-562 leukemia = system: K-562 leukemia
MDA-N = system: MDA-N
DU-145 prostate = system: DU-145 prostate
NCI-H460 lung = system: NCI-H460 lung
NCI-H522 lung = system: NCI-H522 lung
A549 NSCLC = system: A549 NSCLC
CCRF-CEM leukemia = system: CCRF-CEM leukemia
NCI-H23 lung = system: NCI-H23 lung

Which results are given for `CC(=N\O)/C(C)=N/O.CC(=N\O)/C(C)=N/O.CC(=N\O)/C(C)=N/O.CC(=N\O)/C(C)=N/O.[CH3-].[CH3-].[Co].[Co]`?
GI50 (HS 578T breast): 22 µM; TGI (HS 578T breast): 92.5 µM; GI50 (HOP-62 NSCLC): 14.7 µM; TGI (HOP-62 NSCLC): 59.2 µM; GI50 (SN12C renal): 21.9 µM; TGI (SN12C renal): > 100 µM; GI50 (OVCAR-3 ovarian): 15.9 µM; TGI (OVCAR-3 ovarian): 78.8 µM; GI50 (A498 renal): 32.1 µM; TGI (A498 renal): 77.1 µM; GI50 (T-47D breast): 26.5 µM; TGI (T-47D breast): > 100 µM; GI50 (COLO 205 colon): 15 µM; TGI (COLO 205 colon): 29.8 µM; GI50 (TK-10 renal): 28.5 µM; TGI (TK-10 renal): 88.8 µM; GI50 (786-0 renal): 18.4 µM; TGI (786-0 renal): > 100 µM; GI50 (MDA-MB-435): 15 µM; TGI (MDA-MB-435): 39.9 µM; GI50 (SR leukemia): 16.2 µM; TGI (SR leukemia): 50.1 µM; GI50 (MOLT-4 leukemia): 23.8 µM; TGI (MOLT-4 leukemia): 72.4 µM; GI50 (SW-620 colon): 29.4 µM; TGI (SW-620 colon): > 100 µM; GI50 (SNB-75 CNS): 15.5 µM; TGI (SNB-75 CNS): 38.7 µM; GI50 (BT-549 breast): 15.1 µM; TGI (BT-549 breast): 33.8 µM; GI50 (SK-MEL-28 melanoma): 30.2 µM; TGI (SK-MEL-28 melanoma): 90.9 µM; GI50 (U251 CNS): 11.7 µM; TGI (U251 CNS): 24.1 µM; GI50 (HCT-15 colon): 24.8 µM; TGI (HCT-15 colon): > 100 µM; GI50 (HT29 colon): 23 µM; TGI (HT29 colon): 82.5 µM; GI50 (SNB-19 CNS): 17.6 µM; TGI (SNB-19 CNS): > 100 µM; GI50 (RXF 393 renal): 16.7 µM; TGI (RXF 393 renal): 39.9 µM; GI50 (OVCAR-4 ovarian): 21.1 µM; TGI (OVCAR-4 ovarian): 83.5 µM; GI50 (HCC-2998 colon): 13.1 µM; TGI (HCC-2998 colon): 26.9 µM; GI50 (OVCAR-5 ovarian): 28.8 µM; TGI (OVCAR-5 ovarian): > 100 µM; GI50 (MALME-3M melanoma): 16.1 µM; TGI (MALME-3M melanoma): 30.7 µM; GI50 (RPMI-8226 leukemia): 12.8 µM; TGI (RPMI-8226 leukemia): 44.2 µM; GI50 (ACHN renal): 35.4 µM; TGI (ACHN renal): > 100 µM; GI50 (IGROV1 ovarian): 28 µM; TGI (IGROV1 ovarian): > 100 µM; GI50 (UACC-257 melanoma): 14.8 µM; TGI (UACC-257 melanoma): 34.9 µM; GI50 (NCI-H226 lung): 22.8 µM; TGI (NCI-H226 lung): 42.4 µM; GI50 (HCT-116 colon): 7.75 µM; TGI (HCT-116 colon): > 100 µM; GI50 (EKVX NSCLC): 18.7 µM; TGI (EKVX NSCLC): 64.9 µM; GI50 (SF-295 CNS): 22.8 µM; TGI (SF-295 CNS): 76.5 µM; GI50 (SF-539 CNS): 11.3 µM; TGI (SF-539 CNS): 32.1 µM; GI50 (OVCAR-8 ovarian): 27.2 µM; TGI (OVCAR-8 ovarian): > 100 µM; GI50 (MDA-MB-231 breast): 25.3 µM; TGI (MDA-MB-231 breast): 76.7 µM; GI50 (UO-31 renal): 19.3 µM; TGI (UO-31 renal): 48.5 µM; GI50 (NCI/ADR-RES ovarian): > 100 µM; TGI (NCI/ADR-RES ovarian): > 100 µM; GI50 (HOP-92 NSCLC): 26.2 µM; TGI (HOP-92 NSCLC): 71.3 µM; GI50 (MCF7 breast): 16.9 µM; TGI (MCF7 breast): > 100 µM; GI50 (UACC-62 melanoma): 15.1 µM; TGI (UACC-62 melanoma): 30.5 µM; GI50 (HL-60(TB) leukemia): 17.6 µM; TGI (HL-60(TB) leukemia): 50.5 µM; GI50 (SF-268 CNS): 21.6 µM; TGI (SF-268 CNS): 72.3 µM; GI50 (SK-OV-3 ovarian): 34.5 µM; TGI (SK-OV-3 ovarian): > 100 µM; GI50 (CAKI-1 renal): 35.5 µM; TGI (CAKI-1 renal): > 100 µM; GI50 (KM12 colon): 27 µM; TGI (KM12 colon): > 100 µM; GI50 (PC-3 prostate): 21.2 µM; TGI (PC-3 prostate): 63.8 µM; GI50 (LOX IMVI melanoma): 14.4 µM; TGI (LOX IMVI melanoma): 31.2 µM; GI50 (SK-MEL-5 melanoma): 15.3 µM; TGI (SK-MEL-5 melanoma): 28.6 µM; GI50 (SK-MEL-2 melanoma): 11.8 µM; TGI (SK-MEL-2 melanoma): 27.5 µM; GI50 (M14 melanoma): 13 µM; TGI (M14 melanoma): 29.8 µM; GI50 (K-562 leukemia): 20.4 µM; TGI (K-562 leukemia): > 100 µM; GI50 (MDA-N): 16.3 µM; TGI (MDA-N): > 100 µM; GI50 (DU-145 prostate): 30.9 µM; TGI (DU-145 prostate): > 100 µM; GI50 (NCI-H460 lung): 14.6 µM; TGI (NCI-H460 lung): 40.7 µM; GI50 (NCI-H522 lung): 12.2 µM; TGI (NCI-H522 lung): 27.8 µM; GI50 (A549 NSCLC): 39.5 µM; TGI (A549 NSCLC): > 100 µM

Which results are given for `CC(=O)c1cc(I)c(O)c2ncccc12`?
TGI (HS 578T breast): > 10 µM; TGI (HOP-62 NSCLC): > 10 µM; TGI (SN12C renal): > 10 µM; TGI (OVCAR-3 ovarian): 6.57 µM; TGI (A498 renal): 6.53 µM; TGI (T-47D breast): > 10 µM; TGI (COLO 205 colon): 7.81 µM; TGI (TK-10 renal): > 10 µM; TGI (786-0 renal): 9.07 µM; TGI (MDA-MB-435): > 10 µM; TGI (SR leukemia): 8.98 µM; TGI (MOLT-4 leukemia): 5.77 µM; TGI (SW-620 colon): > 10 µM; TGI (BT-549 breast): > 10 µM; TGI (SK-MEL-28 melanoma): > 10 µM; TGI (U251 CNS): > 10 µM; TGI (HCT-15 colon): > 10 µM; TGI (HT29 colon): > 10 µM; TGI (SNB-19 CNS): > 10 µM; TGI (RXF 393 renal): 8.76 µM; TGI (OVCAR-4 ovarian): 6.82 µM; TGI (HCC-2998 colon): > 10 µM; TGI (OVCAR-5 ovarian): > 10 µM; TGI (MALME-3M melanoma): 6.97 µM; TGI (RPMI-8226 leukemia): > 10 µM; TGI (ACHN renal): 5.6 µM; TGI (IGROV1 ovarian): 7.44 µM; TGI (UACC-257 melanoma): 6.06 µM; TGI (NCI-H226 lung): 5.7 µM; TGI (HCT-116 colon): 5.93 µM; TGI (EKVX NSCLC): > 10 µM; TGI (SF-295 CNS): 9.61 µM; TGI (CCRF-CEM leukemia): 4.45 µM; TGI (SF-539 CNS): 6.57 µM; TGI (OVCAR-8 ovarian): 7.38 µM; TGI (MDA-MB-231 breast): 8.09 µM; TGI (NCI/ADR-RES ovarian): 8.24 µM; TGI (HOP-92 NSCLC): 6.19 µM; TGI (MCF7 breast): > 10 µM; TGI (UACC-62 melanoma): 7.9 µM; TGI (HL-60(TB) leukemia): 4.28 µM; TGI (SF-268 CNS): 9.86 µM; TGI (SK-OV-3 ovarian): > 10 µM; TGI (CAKI-1 renal): > 10 µM; TGI (KM12 colon): > 10 µM; TGI (NCI-H23 lung): 8.45 µM; TGI (PC-3 prostate): > 10 µM; TGI (LOX IMVI melanoma): > 10 µM; TGI (SK-MEL-5 melanoma): 5.08 µM; TGI (SK-MEL-2 melanoma): > 10 µM; TGI (M14 melanoma): 4.09 µM; TGI (K-562 leukemia): > 10 µM; TGI (MDA-N): > 10 µM; TGI (DU-145 prostate): 8.45 µM; TGI (NCI-H460 lung): > 10 µM; TGI (NCI-H522 lung): > 10 µM; TGI (A549 NSCLC): > 10 µM
